# Assay results: patent publication US20230287336A1, “METHOD FOR IMPROVING FLAVONOID PHENYLPROPANOID COMPOUNDS IN SAUSSUREA INVOLUCRATA CELL CULTURE” (DALIAN PRACTICAL BIOTECHNOLOGY CO, .LTD, priority 2019, published 2023)
# Read-outs that look alike come from different tables or passages of the source.
# Tests used:
# Format in all cases: cell-based
# [1] = tested on: Saussurea involucrata cell culture; experiment: Contents of rutin, chlorogenic acid, syringin and 1,5-dicaffeoylquinic acid in cultured cells by HPLC
# Description: (3) Content Determination of Phenylpropanoids
# Cultured Saussurea involucrata cells dried to a constant weight were taken and ground to fine powder; about […] of fine powder was precisely weighed, placed in a test tube with a stopper and extracted ultrasonically with 50 mL of 20% methanol for 1 h; a weight loss was supplemented with methanol, the mixture was centrifuged at 15,000 r/min for 20 min, a supernatant was taken and filtered through a 0.45 μm filter membrane, and the contents of rutin, chlorogenic acid, syringin and 1,5-dicaffeoylquinic acid were determined simultaneously through HPLC. Shiseido capcell pak C18 MGII chromatographic column (4.6 mm×250 mm, 5 μm);
# A mobile phase A was 0.2% of […] (containing 50 mmo/L KH2PO4), a mobile phase B was acetonitrile, and gradient elution was performed. Gradient conditions: 0 min (VA:VB=92:8)-20 min (VA:VB=90:10)-50 min (VA:VB=70:30)-60 min (VA:VB=50:50); flow velocity 1.0 mL/min^−1; column temperature 30° C.; detection wavelength 265 nm (syringin); sample size 20 μL.
# [2] = tested on: Saussurea involucrata cell culture; experiment: Dry cell weight / yield of dried cultures after culturing
# Description: (1) Measurement of Dry Cell Weight Cell culture solution was poured into a 120-mesh stainless steel mesh and filtered to harvest cells, the cells were washed with distilled water 3 times, moisture on the surface of the cells was fully absorbed with absorbent paper, a fresh weight was measured, […]
# [3] = tested on: Saussurea involucrata cell culture; experiment: Content of total flavonoids in cultured cells, measured with a spectrophotometer (rutin standard curve)
# Description: (2) Method for Determining Total Flavonoids of Saussurea involucrata:
# Preparation of control solution: 10 mg of rutin control substance dried to a constant weight at 120° C. was precisely weighed and placed in a 50 mL volumetric flask, an appropriate amount of methanol was added, the mixture was heated in water bath to dissolve the rutin control substance and cooled down, methanol was added to the graduation line, and the mixture was shaken well. Then a control solution was obtained (0.2 mg of anhydrous rutin was contained in 1 mL of control solution);
# Preparation of a standard curve: 1 mL, 2 mL, 3 mL, 4 mL, 5 mL and 6 mL of control solutions were precisely weighed and placed in 25 mL volumetric flasks respectively, water was added to 6 mL in each volumetric flask, 1 mL of 5% sodium nitrite solution was added, and the flasks were shaken well and placed for 6 min; 1 mL of 10% aluminum nitrate was added, and the flasks were shaken well and placed for 6 min; 10 mL of sodium hydroxide test solution was added, water was added to the graduation line, and the flasks were shaken well and placed for 15 min; a corresponding reagent was used as a blank, an absorbance was determined at 500 nm, and a standard curve was plotted with the absorbance as a longitudinal coordinate and a concentration as a horizontal coordinate;
# Determination: About 0.10 g of coarse powder of this product was taken, precisely weighed and placed in a Soxhlet extractor, about 90 mL of methanol was added, the mixture was heated to reflux until an extracting solution became colorless (the number of reflux times for each sample should not be less than 4 and 2 hours) and transferred into a 50 mL volumetric flask, methanol was added to the graduation line, and the flask was shaken well.
# [4] = harvested suspension culture, medium, additive, time of addition and culturing time as in each example
# [5] = cells dried at 50° C. for 24 h, additive and culture conditions as in each example
Compound,"content of 1,5-dicaffeoylquinic acid in the cells [1, 4]","content of chlorogenic acid in the cells [1, 4]","content of rutin in the cells [1, 4]","content of syringin in the cells [1, 4]","weight of cultures after being dried (yield of dry products) [2, 5] [g/L]","content of total flavonoids in the cells [3, 4]","content of 1,5-dicaffeoylquinic acid in the cells [1]",content of chlorogenic acid in the cells [1],content of rutin in the cells [1],content of syringin in the cells [1],weight of cultures after being dried (yield of dry products) [2] [g/L],content of total flavonoids in the cells [3]
O=C(O)C=Cc1ccccc1 [cinnamic acid],more than 2.81%,more than 1.66%,more than 0.066%,more than 1.45%,15,more than 22 % of the cells (dry weight),,,,,,
CC/C=C\CC1C(=O)CCC1CC(=O)OC (centres unmarked) [methyl jasmonate],more than 4.12%,more than 2.44%,more than 0.081%,more than 1.89%,20.4,more than 24.1 % of the cells (dry weight),,,,,,
O=C(O)C(=O)O [oxalic acid],more than 1.72%,more than 1.27%,more than 0.071%,more than 0.95%,16,more than 19.6 % of the cells (dry weight),,,,,,
N[C@@H](Cc1ccccc1)C(=O)O [phenylalanine],more than 2.48%,more than 1.28%,more than 0.078%,more than 2.07%,15,more than 22.7 % of the cells (dry weight),,,,,,
O=C(O)c1ccccc1O [salicylic acid],more than 3.55%,more than 1.86%,more than 0.072%,more than 1.09%,16.8,more than 21.2 % of the cells (dry weight),,,,,,
CC(=O)[O-].[Na+] [sodium acetate],,,,,,,more than 2.35%,more than 1.79%,more than 0.064%,more than 1.22%,15,more than 21.8 % of the cells (dry weight)
N[C@@H](Cc1ccc(O)cc1)C(=O)O [tyrosine],more than 2.75%,more than 0.62%,more than 0.062%,more than 1.49%,18.2,more than 19.4 % of the cells (dry weight),,,,,,
silver nitrate,more than 2.97%,more than 1.47%,more than 0.065%,more than 1.38%,16,,,,,,,
